Paper PMC7183711, “Co-production of gallic acid and a novel cell-associated tannase by a pigment-producing yeast, Sporidiobolus ruineniae A45.2” (Microbial Cell Factories, 2020)

System: T1, purified tannase (PT); cell-associated tannase (CAT) of Sporidiobolus ruineniae A45.2
T1 construct: gene tannin acyl hydrolase; native enzyme released from cell wall with Triton X-100, Q-Sepharose purified
Assay: rhodanine assay of released gallic acid, A520; Michaelis-Menten fit
Type: biochemical, Rhodosporidiobolus ruineniae
Conditions: 100 mM sodium phosphate pH 6.5, 30 °C, 10 min; 0.25-12.5 mM methyl gallate; purified free enzyme

COC(=O)c1cc(O)c(O)c(O)c1 [methyl gallate]
Km: 2600 ± 400 µM
